Values quoted from earlier work as cited in patent US7732395B2, “Water-stabilized antimicrobial organosilane products, compositions, and methods for using the same” (Vitec Specialty Chemicals Ltd., priority 2006, dated 2010).

Conditions: prior art

SMILES: CCCCCCCCCCCCCCCCCC[N+](C)(C)CCC[Si](OC)(OC)OC.[Cl-] [3-(trimethoxysilyl)propyl-dimethyloctadecyl ammonium chloride]
- time after which the mixture with water begins to lose effectiveness: four to eight
